{"source": "paper PMC5848165", "about": "(Toxins, 2018)", "key": {"[1]": {"test_system": "WT Nav1.7, domain II voltage sensor", "assay": "Voltage sensor trapping test on WT Nav1.7 (patch clamp pulse protocols)", "type": "cell-based, human", "settings": "10 µM", "description": "It has been proven that scorpion β-toxins trapped the domain II S4 voltage sensor in the outward position. However, HWTX-IV inhibited sodium channels by trapping voltage sensor in a closed configuration [15]. We wondered whether JZTX-34 blocked sodium channels in a resting state or an outward position. The current traces were recorded by a 50 ms depolarizing pulse of −10 mV from a holding potential of −80 mV. At first, 10 µM JZTX-34 was added to cells and incubated for 5 min. Then, the currents were elicited by the protocol described before. […] To further confirm this, the same protocol described by Cestele et al. was used to assess whether JZTX-34 traps the domain II S4 voltage sensor of the WT Nav1.7 in a closed position. A 15 ms test pulse to 0 mV was applied from a holding potential of −80 mV and was followed by a 1 ms conditioning pulse to +50 mV. Then, a 15 ms test pulse to −65 mV was used to detect whether the currents were elicited.\nFigure 5 JZTX-34 traps the domain II voltage sensor in closed configuration. (A) Nav1.7 current traces were elicited by a protocol as following. First, an inward sodium currents were elicited by a 50 ms depolarizing potential to 0 mV from a holding potential of −80 mV every 5 s. Second, 10 μM JZTX-34 were added to bath solution. Finally, the same pulse protocol was applied to elicit inward currents after a 5 min toxin treatment. (B) The current traces 0, 15 ms, 100 ms, and 5 min after toxin treatment are shown, which were elicited by a protocol as shown in C. (C) This pulse protocol was included three phases and applied every 5 s. […]\n(§1) The HEK293T cells were maintained in standard culture conditions (5% CO2 and 37 °C). […] After culturing for 36–72 h, cells with obvious green fluorescence were selected for sodium currents recordings the internal solution for sodium currents recording that contained (in mM) 140 CsF, 5 NaCl, 10 HEPES, 3 Na2-ATP, and 10 EGTA. […]\nSodium currents were recorded from DRG, HEK293, and ND cells by the whole-cell patch-clamp technique at 25 °C. […]"}, "Nav1.8": {"test_system": "Nav1.8", "assay": "Whole-cell patch clamp, Nav1.8 in ND cells", "type": "cell-based, human", "settings": "1 µM, −10 mV from −80 mV", "source_text": "Nine sodium channel subtypes have been identified and classified as TTX-S (Nav1.1–Nav1.4, Nav1.6, and Nav1.7) or TTX-R types (Nav1.5, Nav1.8, and Nav1.9). […] However, the subtype selectivity of JZTX-34 on the subtype of sodium channel is still unknown. In this work, effects of JZTX-34 on VGSC subtypes (Nav1.1–Nav1.8) were examined. Nav1.1–Nav1.7 were transfected into HEK293 cells and Nav1.8 currents were expressed in ND cells. Inward sodium currents were elicited by a 50 ms depolarizing potential to −10 mV from a holding potential of −80 mV every 5 s. […] No effects on other sodium channel subtypes were found (Nav1.1, Nav1.2, Nav1.4–Nav1.6, and Nav1.8) (Figure S2). […]\nas §1\nSodium currents were recorded from DRG, HEK293, and ND cells by the whole-cell patch-clamp technique at 25 °C. […] Experiments date were acquired from whole-cell Axon 700B patch clamp amplifier (Molecular Devices, Sunnyvale, CA, USA) and analyzed by the program Clampfit10.0 (Molecular Devices, Sunnyvale, CA, USA) and Sigmaplot. […]"}}, "note": "Residues, ends and D or L forms follow the SMILES beside them."}
{"smiles": "CC(C)C[C@@H]1NC(=O)[C@H](Cc2c[nH]c3ccccc23)NC(=O)[C@H](CCC(=O)O)NC(=O)[C@H](CCCNC(=N)N)NC(=O)[C@@H](NC(=O)[C@H](C)N)CSSC[C@@H]2NC(=O)[C@@H]3CSSC[C@@H](C(=O)N[C@H](C(=O)N[C@@H](Cc4c[nH]c5ccccc45)C(=O)N[C@@H](CC(=O)O)C(=O)N[C@@H](Cc4c[nH]c5ccccc45)C(=O)N[C@H](C(=O)N[C@H](C(=O)O)C(C)C)[C@@H](C)O)C(C)C)NC(=O)[C@H](Cc4c[nH]cn4)NC(=O)[C@H](Cc4ccc(O)cc4)NC(=O)[C@@H]4CCCN4C(=O)[C@H](Cc4c[nH]c5ccccc45)NC(=O)[C@H](CCCCN)NC(=O)[C@H](CCCCN)NC(=O)[C@H](CCCNC(=N)N)NC(=O)[C@H](CSSC[C@H](NC(=O)CNC(=O)CNC1=O)C(=O)N[C@@H](CO)C(=O)N[C@@H](CCCCN)C(=O)N[C@@H](CC(=O)O)C(=O)N[C@@H](C)C(=O)N[C@@H](CC(=O)O)C(=O)N3)NC(=O)[C@H](CCC(=O)O)NC(=O)[C@H](CC(C)C)NC(=O)[C@H](Cc1c[nH]cn1)NC(=O)[C@H](C)NC2=O", "note": "[JZTX-34, Jingzhaotoxin-34] (HELM PEPTIDE1{A.C.R.E.W.L.G.G.C.S.K.D.A.D.C.C.A.H.L.E.C.R.K.K.W.P.Y.H.C.V.W.D.W.T.V}$PEPTIDE1,PEPTIDE1,2:R3-16:R3|PEPTIDE1,PEPTIDE1,9:R3-21:R3|PEPTIDE1,PEPTIDE1,15:R3-29:R3$$$V2.0; N-terminus and C-terminus assumed)", "values": [{"measurement": "inhibition at first pulse after incubation at rest", "setting": "[1]; 5 min incubation, −10 mV (legend: 0 mV) from −80 mV", "result": "currents were significantly inhibited at the first pulse"}, {"measurement": "current amplitude at first test pulse (0 mV)", "setting": "[1]; 15 ms test pulse to 0 mV from −80 mV", "result": "greatly depressed in a time-dependent manner"}, {"measurement": "inward current at second test pulse (−65 mV)", "setting": "[1]; after 1 ms conditioning pulse to +50 mV", "result": "no inward current was observed"}, {"measurement": "effect on Nav1.8 currents", "setting": "Nav1.8", "result": "No effects"}]}
